Legend:
anal resting pressure = experiment: Phenylephrine ointment applied to anal margin, anal manometry; type: in vivo, human; conditions: ointment in yellow soft paraffin, up to approximately 500 mg 10% ointment (50 mg of phenylephrine)
Experimental: Preparations of commercially available ophthalmic 10% phenylephrine hydrochloride (Minims) solution were administered intraanally with the subject in the left lateral position.

[1] = tested on: resting anal sphincter pressure, human volunteers; experiment: Topical phenylephrine gel dose ranging in volunteers: resting anal sphincter pressure and anodermal blood flow; type: in vivo; conditions: for rise in mean resting anal sphincter pressure (MRP): topical, twelve volunteers
Experimental: A composition of base gel had the following composition: carmellose sodium 6 g, polyethylene glycol 30 ml, methylhydroxybenzoate 150 mg, propylhydroxybenzoate 15 mg, made up to volume with distilled water (pH4).
Various amounts of phenylephrine was added at 5%, 10%, 20% and 30% w/w to form various compositions for dose ranging studies (FIG. 2).
Twelve human volunteers aged 21 to 53 (mean 35) were studied on 4 occasions. Measurements of resting anal sphincter pressure and anodermal blood flow (using a laser doppler flowmeter) were taken before and after topical application of increasing concentrations of phenylephrine gel according to example 3 (supplied by Slaco Pharma (UK) Ltd) to the anus. Readings were taken through the day after a single application in order to determine the duration of effect.

[2] = tested on: patients with idiopathic passive fecal incontinence; experiment: Randomised placebo controlled cross over trial of 10% phenylephrine cream in idiopathic passive fecal incontinence; type: in vivo, human
Experimental: A prospective randomised placebo controlled cross over trial was undertaken to evaluate the use of 10% phenylephrine topical cream (according to examples 3 and 4) for treatment of idiopathic passive fecal incontinence.
30 Patients completed the study. All patients were assessed by endoanal ultrasound as well as anorectal physiology (to determine maximum resting anal pressure) and laser doppler flowmetry prior to treatment. The latter two measurements are repeated after a 3 week trial of the active agent (phenylephrine 10%) and placebo ‘Incontinence scores’ are determined before and after each treatment.

[3] = tested on: patients with ileo-anal pouch and fecal incontinence; experiment: Randomised placebo controlled cross over trial of 10% phenylephrine cream in patients with ileo-anal pouch; type: in vivo, human
Experimental: A prospective randomised placebo controlled cross over trial was undertaken to evaluate the use of phenylephrine 10% topical cream (according to examples 2a and 3) for treatment of fecal incontinence in patients with ilco-anal pouch.
10 Patients are mainly troubled by nocturnal incontinence only, and 2 have both daytime and nocturnal incontinence.
Of the 10 completed studies, there were 7 women and 3 men, age range (34-67). Anorectal manometry was performed and laser doppler fowmetry on all patients. Incontinence score was determined. All these outcome measures were repeated after treatment with both trial creams (phenylephrine and placebo).

[4] = tested on: maximum resting anal pressure, healthy volunteers; experiment: Healthy volunteer group, intraanal 10% phenylephrine, manometry; conditions: 0.5 ml 10% (50 mg) intraanal
[5] = tested on: maximum resting anal pressure, single healthy volunteer; experiment: Dose response study in single volunteer, intraanal phenylephrine solution, manometry
[6] = tested on: maximum resting anal pressure, patients with passive faecal incontinence; experiment: Patient group with passive faecal incontinence, intraanal 10% phenylephrine, manometry
[7] = tested on: minor incontinence after ileoanal anastomosis; conditions: Surgery 1990; 107: p 311-315; cited from earlier work
[8] = tested on: internal anal pressure, patients with incontinence or constipation; experiment: NΩ-Nitro-L-arginine ointment in and around the anal canal, manometry before and after application; type: in vivo, human; conditions: 1% ointment, twelve patients
Experimental: A 1% ointment was prepared by mixing […] of NΩ-Nitro-L-arginine (obtained from Fluka—part of the Sigma group) in 19.8 g of unguentum merk base.
The ointment was then applied in and around the anal canal of twelve patients and the interanal pressure measured by manometry (as discussed previously) before and shortly after application of the ointment.

[9] = topical 10% phenylephrine cream

CNC[C@H](O)c1cccc(O)c1 [phenylephrine]
effect of ointment applied to the anal margin (anal resting pressure): no effect | rise in mean resting anal sphincter pressure (MRP) ([1]; 5% phenylephrine gel, p 0.04): 6% | duration of action of a single application (median) ([1]; 10% phenylephrine gel): 7 (range 6 to 8) hours | rise in mean resting anal sphincter pressure (MRP) ([1]; 10% phenylephrine gel, versus pre-treatment): 33% | post treatment MRP ([1]; 10% phenylephrine gel, pre-treatment 85±2, P<0.0001): 127±12 cmH2O | response of MRP at concentrations higher than 10% ([1]; higher concentrations of phenylephrine gel (20%, 30% w/w)): no additional response | changes in anodermal blood flow ([1]; laser doppler flowmeter, topical phenylephrine gel): No notable changes | mean resting pressure post phenylephrine ([2]; 10% phenylephrine, from 62 pre, no significant change): 58 cmH2O | incontinence score (mean) after treatment ([2]; 10% phenylephrine, improved from mean of 14): 10 | change in anodermal blood flow ([2]; laser doppler flowmetry, after 10% phenylephrine): no significant change | patients with significant subjective improvement of symptoms ([2]; three of 30 patients, 10% cream for 3 weeks, versus baseline and placebo): 10% | patients with subjective improvement of symptoms (summary) [2, 9]: 3/30 | patients with significant improvement of symptoms ([3]; 6/10 patients, phenylephrine 10% compared to placebo): 60% | improvement of incontinence scores (mean) ([3]; after phenylephrine 10%, 3% after placebo): 45% | increase in mean resting anal sphincter pressure compared to baseline ([3]; in the improved patients, after phenylephrine 10%, -8% on placebo, p<0.005): 29% | differences in anodermal blood flow ([3]; laser doppler flowmetry): No differences | patients with objective improvement (anal sphincter pressure) ([3]; of the 7 improved patients): 6 patients | patients with no improvement ([3]; phenylephrine 10% cream): 3/10 | mean subjective improvement in symptoms reported by patients ([3]; phenylephrine 10% cream, 14% after placebo, p<0.01): 83% | improvement of incontinence score, one patient ([3]; single patient without measurable pressure increase): 47% | subjective improvement, one patient ([3]; single patient, after phenylephrine compared to placebo): 75% | anal sphincter pressure, one patient ([3]; single patient, phenylephrine 10% cream): no measurable increase | patients with improvement of symptoms of incontinence (summary) [3, 9]: 7/10 | maximum resting pressure after application (median) ([4]; ten healthy volunteers, pre median 110, post range 120-210, 17.5 KPa, p<0.05): 180 cm H2O | time increased pressure was maintained (duration of the recording, median) ([4]; range 14-31 minutes): ≥ 23 min | increase in maximum resting pressure ([5]; 0.5 ml 0.1% (0.5 mg) intraanal): no significant increase | increase in maximum resting pressure ([5]; 0.5 ml 0.5% (2.5 mg) intraanal): no significant increase | increase in maximum resting pressure ([5]; 0.5 ml 1% (5 mg) intraanal): no significant increase | increase in maximum resting pressure ([5]; 0.5 ml 5% (25 mg) intraanal): no significant increase | resting pressure after instillation ([5]; 0.5 ml 10% (50 mg) into the anal canal, from 120 cm H2O before (12-21 KPa)): 210 cm H2O | time over which increase in resting anal pressure was evident (continuous recording) ([5]; 0.5 ml 10% (50 mg) intraanal): ≥ 25 min | resting anal pressure 13 hours later ([5]; 0.5 ml 10% (50 mg) intraanal, manometry repeated at 13 hours): returned to pre-treatment level | median maximum resting pressure after instillation ([6]; 0.5 ml 10% (50 mg) intraanal, ten patients, pre median 25, post range 20-80, 5.5 KPa, p=0.39): 55 cm H2O | patients demonstrating a rise in anal pressure ([6]; of ten patients, two showed a fall, one no change): Seven

CCCC(CCC)C(=O)[O-].[Na+] [sodium valproate]
treatment of minor incontinence after ileoanal anastomosis [7]: useful

NC(=NCCC[C@H](N)C(=O)O)N[N+](=O)[O-] [NΩ-Nitro-L-arginine]
effect on resting internal anal sphincter pressure (in words) [8]: increase the resting internal an1 sphincter pressure
